Source: patent publication US8987514B2, “Compositions and methods for labeling and imaging phospholipids” (President and Fellows of Harvard College, priority 2009, dated 2015)

System: NIH-3T3 cells
Conditions: for incorporation of azide choline analogs into phospholipids: FIG. 8 legend
Text: After incorporation into phospholipids, azidophosphatidylcholine molecules can be detected by specifically reacting them with a fluorescent conjugate of dibenzo-cyclooctyne (DBCO), in a strain-promoted azide-alkyne cycloaddition reaction, also known as the copper-free “click” reaction (FIG. 9). In addition, azidophosphatidylcholine molecules can be reacted with a biotin-phosphine, followed by the detection of the biotinylated phospholipid species using labeled streptavidin (FIG. 10).
Cultured NIH-3T3 cells on coverslips were incubated overnight in complete media (DMEM with 10% bovine calf serum) in the absence or presence of 1 mM azidopropyl-choline. The cells were then washed with PBS, fixed with 3.7% formaldehyde in PBS, washed with TBS and then reacted with 40 microM biotin-phosphine in TBS supplemented with 1 mM DTT, for 3 hours at room temperature. The cells were then washed successively with TBS, 0.5 M NaCl, and TBS. Non-specific binding sites were blocked by incubation with blocking buffer (4% bovine serum albumin in TBS), followed by staining with Alexa488-streptavidin (1 microg/mL in blocking buffer). The cells were then washed with TBS (at least 4 washes, at 5 minutes each), mounted and imaged by fluorescence microscopy.
Cultured NIH-3T3 cells were transiently transfected with the plasmid pDsRed-Mito (Clontech), which labels mitochondria red. The cells were then incubated overnight in complete media, in the absence or presence of 500 microM azidoethyl-choline. The cells were washed with PBS, fixed with 3.7% formaldehyde in PBS, washed with TBS and then reacted with 20 microM Alexa488-DBCO in TBS, for 30 minutes at room temperature. Unreacted Alexa488-DBCO was removed by washing successively with TBS, 0.5 M NaCl, and TBS. The cells were then imaged by fluorescence microscopy.

## azidopropyl-choline
  incorporation of azide choline analogs into phospholipids: efficiently incorporated into phospholipids in vivo

## azidoethyl-choline
  incorporation of azide choline analogs into phospholipids: efficiently incorporated into phospholipids in vivo
NIH-3T3 cells, 500 microM overnight, DsRed-Mito marker, Alexa488-DBCO, FIG. 12
  subcellular distribution of azidoethylcholine-labeled phospholipids: localize to several populations of cellular membranes, including the mitochondrial membrane
